According to ChEMBL document CHEMBL3045481, “Insecticide-induced resurgence of the whitebacked planthopper Sogatella furcifera (Horvath) (Hemiptera: Delphacidae) on rice varieties with different levels of resistance” (Crop Prot, 2011):
Active and inactive are the calls of the source. The rule behind the calls is not given here.

Columns and labels:
Sogatella furcifera [1] = assay: Insecticidal activity against Sogatella furcifera on insect-resistanct rice plant PR116 assessed as growth index at 0.100% concentration (reference value: 6.02%); assay type: functional
Sogatella furcifera [2] = assay: Insecticidal activity against Sogatella furcifera on insect-resistanct rice plant PR116 assessed as hopper population at 0.100% concentration; assay type: functional, organism-based
Oryza sativa [3] = assay: Effect on total sugar level in Sogatella furcifera-sensitive Oryza sativa (rice) plant ARC6248 leaf blade measured per gram of dry weight at 0.100% concentration (reference value: 34.05 mg/g dry wt); assay type: ADME, organism-based; conditions: in vivo
Sogatella furcifera [4] = assay: Insecticidal activity against Sogatella furcifera on insect-sensitive rice plant ARC6248 assessed as resurgence ratio at 0.100% concentration; assay type: functional
Oryza sativa [5] = assay: Effect on total amino acids level in Sogatella furcifera-resistanct Oryza sativa (rice) plant PR116 leaf sheath measured per gram of dry weight at 0.100% concentration (reference value: 2.58 mg/g […]); assay type: ADME, organism-based; conditions: in vivo
Oryza sativa [6] = assay: Effect on total protein level in Sogatella furcifera-resistanct Oryza sativa (rice) plant PR116 leaf blade measured per gram of dry weight at 0.100% concentration (reference value: 21.67 mg/g fresh wt); assay type: ADME, organism-based; conditions: in vivo
Oryza sativa [7] = assay: Effect on total amino acids level in Sogatella furcifera-sensitive Oryza sativa (rice) plant ARC6248 leaf blade measured per gram of dry weight at 0.100% concentration (reference value: 3.54 mg/g fresh wt); assay type: ADME, organism-based; conditions: in vivo
Oryza sativa [8] = assay: Effect on total amino acids level in Sogatella furcifera-resistanct Oryza sativa (rice) plant PR116 leaf blade measured per gram of dry weight at 0.100% concentration (reference value: 3.91 mg/g […]); assay type: ADME, organism-based; conditions: in vivo
Oryza sativa [9] = assay: Effect on reducing sugar level in Sogatella furcifera-sensitive Oryza sativa (rice) plant ARC6248 leaf blade measured per gram of dry weight at 0.100% concentration (reference value: 8.37 mg/g dry wt); assay type: ADME, organism-based; conditions: in vivo
Oryza sativa [10] = assay: Effect on total phenols level in Sogatella furcifera-resistanct Oryza sativa (rice) plant PR116 leaf sheath measured per gram of dry weight at 0.100% concentration (reference value: 5.75 mg/g dry wt); assay type: ADME, organism-based; conditions: in vivo
Oryza sativa [11] = assay: Effect on total sugar level in Sogatella furcifera-sensitive Oryza sativa (rice) plant ARC6248 leaf sheath measured per gram of dry weight at 0.100% concentration (reference value: 25.98 mg/g dry wt); assay type: ADME, organism-based; conditions: in vivo
Oryza sativa [12] = assay: Effect on total protein level in Sogatella furcifera-resistanct Oryza sativa (rice) plant PR116 leaf sheath measured per gram of dry weight at 0.100% concentration (reference value: 7.06 mg/g fresh wt); assay type: ADME, organism-based; conditions: in vivo
Oryza sativa [13] = assay: Effect on total protein level in Sogatella furcifera-sensitive Oryza sativa (rice) plant ARC6248 leaf blade measured per gram of dry weight at 0.100% concentration (reference value: 17.67 mg/g […]); assay type: ADME, organism-based; conditions: in vivo
Oryza sativa [14] = assay: Effect on total phenols level in Sogatella furcifera-sensitive Oryza sativa (rice) plant ARC6248 leaf blade measured per gram of dry weight at 0.100% concentration (reference value: 17.08 mg/g dry wt); assay type: ADME, organism-based; conditions: in vivo
Oryza sativa [15] = assay: Effect on total phenols level in Sogatella furcifera-resistanct Oryza sativa (rice) plant PR116 leaf blade measured per gram of dry weight at 0.100% concentration (reference value: 8.08 mg/g dry wt); assay type: ADME, organism-based; conditions: in vivo
Sogatella furcifera [16] = assay: Insecticidal activity against Sogatella furcifera on insect-resistanct rice plant PR116 assessed as nymphal duration at 0.100% concentration (reference value: 11.75 days); assay type: functional
Oryza sativa [17] = assay: Effect on total amino acids level in Sogatella furcifera-sensitive Oryza sativa (rice) plant ARC6248 leaf sheath measured per gram of dry weight at 0.100% concentration (reference value: 2.11 mg/g fresh wt); assay type: ADME, organism-based; conditions: in vivo
Oryza sativa [18] = assay: Effect on reducing sugar level in Sogatella furcifera-resistanct Oryza sativa (rice) plant PR116 leaf blade measured per gram of dry weight at 0.100% concentration (reference value: 9.35 mg/g dry wt); assay type: ADME, organism-based; conditions: in vivo
Oryza sativa [19] = assay: Effect on total sugar level in Sogatella furcifera-resistanct Oryza sativa (rice) plant PR116 leaf sheath measured per gram of dry weight at 0.100% concentration (reference value: 30.27 mg/g dry wt); assay type: ADME, organism-based; conditions: in vivo
Oryza sativa [20] = assay: Effect on reducing sugar level in Sogatella furcifera-resistanct Oryza sativa (rice) plant PR116 leaf sheath measured per gram of dry weight at 0.100% concentration (reference value: 7.50 mg/g dry wt); assay type: ADME, organism-based; conditions: in vivo
Sogatella furcifera [21] = assay: Insecticidal activity against Sogatella furcifera on insect-resistanct rice plant PR116 assessed as nymphal survival at 0.100% concentration (reference value: 70.28%); assay type: functional
Sogatella furcifera [22] = assay: Insecticidal activity against Sogatella furcifera on insect-sensitive rice plant ARC6248 assessed as growth index at 0.100% concentration (reference value: 2.38%); assay type: functional
Oryza sativa [23] = assay: Effect on reducing sugar level in Sogatella furcifera-sensitive Oryza sativa (rice) plant ARC6248 leaf sheath measured per gram of dry weight at 0.100% concentration (reference value: 6.41 mg/g dry wt); assay type: ADME, organism-based; conditions: in vivo
Oryza sativa [24] = assay: Effect on total sugar level in Sogatella furcifera-resistanct Oryza sativa (rice) plant PR116 leaf blade measured per gram of dry weight at 0.100% concentration (reference value: 36.16 mg/g dry wt); assay type: ADME, organism-based; conditions: in vivo
Oryza sativa [25] = assay: Effect on total phenols level in Sogatella furcifera-sensitive Oryza sativa (rice) plant ARC6248 leaf sheath measured per gram of dry weight at 0.100% concentration (reference value: 12.75 mg/g dry wt); assay type: ADME, organism-based; conditions: in vivo
Oryza sativa [26] = assay: Effect on total protein level in Sogatella furcifera-sensitive Oryza sativa (rice) plant ARC6248 leaf sheath measured per gram of dry weight at 0.100% concentration (reference value: 6.11 mg/g […]); assay type: ADME, organism-based; conditions: in vivo
Sogatella furcifera [27] = assay: Insecticidal activity against Sogatella furcifera on insect-sensitive rice plant ARC6248 assessed as nymphal survival at 0.100% concentration (reference value: 34.17%); assay type: functional
Sogatella furcifera [28] = assay: Insecticidal activity against Sogatella furcifera on insect-resistanct rice plant PR116 assessed as resurgence ratio at 0.100% concentration; assay type: functional
Sogatella furcifera [29] = assay: Insecticidal activity against Sogatella furcifera on insect-sensitive rice plant ARC6248 assessed as reproduction at 0.100% concentration; assay type: functional, organism-based
Sogatella furcifera [30] = assay: Insecticidal activity against Sogatella furcifera on insect-sensitive rice plant ARC6248 assessed as nymphal duration at 0.100% concentration (reference value: 14.48 days); assay type: functional

## CCOP(=S)(OCC)Oc1cnc2ccccc2n1 [QUINALPHOS]
Sogatella furcifera [1]
  growth inhibition (GI): 6.24%
Sogatella furcifera [2]
  Activity: inactive
Oryza sativa [3]
  Activity: 38.84 mg
Sogatella furcifera [4]
  Ratio: 1.13
Oryza sativa [5]
  Activity: 2.93 mg
Oryza sativa [6]
  Activity: 22.78 mg
Oryza sativa [7]
  Activity: 3.61 mg
Oryza sativa [8]
  Activity: 4.89 mg
Oryza sativa [9]
  Activity: 10 mg
Oryza sativa [10]
  Activity: 5.67 mg
Oryza sativa [11]
  Activity: 31.87 mg
Oryza sativa [12]
  Activity: 8.5 mg
Oryza sativa [13]
  Activity: 21.56 mg
Oryza sativa [14]
  Activity: 17.08 mg
Oryza sativa [15]
  Activity: 6.75 mg
Sogatella furcifera [16]
  Time: 11.65 days
Oryza sativa [17]
  Activity: 2.38 mg
Oryza sativa [18]
  Activity: 13.04 mg
Oryza sativa [19]
  Activity: 30.27 mg
Oryza sativa [20]
  Activity: 11.31 mg
Sogatella furcifera [21]
  Survival: 72.22%
Sogatella furcifera [22]
  growth inhibition (GI): 2.61%
Oryza sativa [23]
  Activity: 8.8 mg
Oryza sativa [24]
  Activity: 42.05 mg
Oryza sativa [25]
  Activity: 1308 mg
Oryza sativa [26]
  Activity: 7.22 mg
Sogatella furcifera [27]
  Survival: 37.5%
Sogatella furcifera [28]
  Ratio: 1.31
Sogatella furcifera [29]
  Activity: inactive
Sogatella furcifera [30]
  Time: 14.46 days

## O=S1OCC2C(CO1)C1(Cl)C(Cl)=C(Cl)C2(Cl)C1(Cl)Cl (stereo not given) [ENDOSULFAN]
Sogatella furcifera [1]
  growth inhibition (GI): 5.66%
Sogatella furcifera [2]
  Activity: inactive
Oryza sativa [3]
  Activity: 34.55 mg
Sogatella furcifera [4]
  Ratio: <1
Oryza sativa [5]
  Activity: 2.4 mg
Oryza sativa [6]
  Activity: 18.33 mg
Oryza sativa [7]
  Activity: 3.31 mg
Oryza sativa [8]
  Activity: 3.38 mg
Oryza sativa [9]
  Activity: 7.94 mg
Oryza sativa [10]
  Activity: 7.83 mg
Oryza sativa [11]
  Activity: 30 mg
Oryza sativa [12]
  Activity: 7.78 mg
Oryza sativa [13]
  Activity: 16.56 mg
Oryza sativa [14]
  Activity: 21.75 mg
Oryza sativa [15]
  Activity: 10 mg
Sogatella furcifera [16]
  Time: 12 days
Oryza sativa [17]
  Activity: 2.46 mg
Oryza sativa [18]
  Activity: 8.26 mg
Oryza sativa [19]
  Activity: 28.12 mg
Oryza sativa [20]
  Activity: 7.17 mg
Sogatella furcifera [21]
  Survival: 67.5%
Sogatella furcifera [22]
  growth inhibition (GI): 2.24%
Oryza sativa [23]
  Activity: 5.98 mg
Oryza sativa [24]
  Activity: 34.02 mg
Oryza sativa [25]
  Activity: 17.08 mg
Oryza sativa [26]
  Activity: 5 mg
Sogatella furcifera [27]
  Survival: 32.22%
Sogatella furcifera [28]
  Ratio: <1
Sogatella furcifera [29]
  Activity: inactive
Sogatella furcifera [30]
  Time: 14.5 days

## CCOP(=S)(OCC)Oc1nc(Cl)c(Cl)cc1Cl [CHLORPYRIFOS]
Sogatella furcifera [1]
  growth inhibition (GI): 5.94%
Sogatella furcifera [2]
  Activity: inactive
Oryza sativa [3]
  Activity: 33.21 mg
Sogatella furcifera [4]
  Ratio: <1
Oryza sativa [5]
  Activity: 2.22 mg
Oryza sativa [6]
  Activity: 19.44 mg
Oryza sativa [7]
  Activity: 3 mg
Oryza sativa [8]
  Activity: 4 mg
Oryza sativa [9]
  Activity: 7.5 mg
Oryza sativa [10]
  Activity: 6.08 mg
Oryza sativa [11]
  Activity: 25.98 mg
Oryza sativa [12]
  Activity: 7.72 mg
Oryza sativa [13]
  Activity: 18.22 mg
Oryza sativa [14]
  Activity: 18.75 mg
Oryza sativa [15]
  Activity: 7.67 mg
Sogatella furcifera [16]
  Time: 11.75 days
Oryza sativa [17]
  Activity: 1.75 mg
Oryza sativa [18]
  Activity: 9.13 mg
Oryza sativa [19]
  Activity: 31.34 mg
Oryza sativa [20]
  Activity: 7.72 mg
Sogatella furcifera [21]
  Survival: 69.45%
Sogatella furcifera [22]
  growth inhibition (GI): 2.25%
Oryza sativa [23]
  Activity: 6.31 mg
Oryza sativa [24]
  Activity: 39.37 mg
Oryza sativa [25]
  Activity: 14.08 mg
Oryza sativa [26]
  Activity: 5 mg
Sogatella furcifera [27]
  Survival: 32.5%
Sogatella furcifera [28]
  Ratio: <1
Sogatella furcifera [29]
  Activity: inactive
Sogatella furcifera [30]
  Time: 14.63 days
